# Test results reported in patent US20210392895A1, “NOVEL OXADIAZOLES” (PI INDUSTRIES LIMITED, priority 2018, published 2021).
# Test system: Phakopsora pachyrhizi
# Assay: Phakopsora pachyrhizi test in soybean (greenhouse, preventive activity, disease severity rating)
# Assay type: in vivo
# Conditions: preventive spray on soybean, compared to the untreated check
# Protocol: To test the preventive activity of compounds, healthy young soybean plants, raised in the greenhouse, were sprayed with the active compound solution at the stated application rates inside spray cabinets using hallowcone nozzles. One day after treatment, the plants were inoculated with a suspension containing 2.1×10^6 Phakopsora pachyrhizi spores. The inoculated plants were then kept in the greenhouse chamber at 25° C. temperature and 90% relative humidity for disease expression. A visual assessment of the compound's performance was carried out by rating the disease severity (0-100% scale) on treated plants on 3, 7, 10 and 15 days after application. Efficacy (% control) of the compounds was calculated by comparing the disease rating in the treatment with the one of the untreated control. The treated plants were also assessed for plant compatibility by recording symptoms like necrosis, chlorosis and stunting.
row,SMILES,pest or weed control at 500 ppm [%]
1,"O=S(=O)(c1cccc(Cl)c1)N1CC[C@H](Oc2ccc(-c3noc(C(F)(F)F)n3)cn2)C1 [Compound 108, (S)-3-(6-((1-((3-chlorophenyl)sulfonyl)pyrrolidin-3-yl)oxy)pyridin-3-yl)-5-(trifluoromethyl)-1,2,4-oxadiazole]",> 70
2,"CC(C)S(=O)(=O)N1CC[C@H](Oc2ccc(-c3noc(C(F)(F)F)n3)cn2)C1 [Compound 155, (S)-3-(6-((1-(isopropylsulfonyl)pyrrolidin-3-yl)oxy)pyridin-3-yl)-5-(trifluoromethyl)-1,2,4-oxadiazole]",> 70
3,"CN(c1ccc(-c2noc(C(F)(F)F)n2)cc1)C1CN(C(=O)C(C)(C)C)C1 [Compound 129, 2,2-dimethyl-1-(3-(methyl(4-(5-(trifluoromethyl)-1,2,4-oxadiazol-3-yl)phenyl)amino)azetidin-1-yl)propan-1-one]",> 70
4,"O=S(=O)(c1ccc(Br)cc1)N1CC[C@H](Oc2ccc(-c3noc(C(F)(F)F)n3)cc2)C1 [Compound 116, (S)-3-(4-((1-((4-bromophenyl)sulfonyl)pyrrolidin-3-yl)oxy)phenyl)-5-(trifluoromethyl)-1,2,4-oxadiazole]",> 70
5,"Cc1ccsc1S(=O)(=O)N1CC[C@H](Oc2ccc(-c3noc(C(F)(F)F)n3)cc2)C1 [Compound 147, (S)-3-(4-((1-((3-methylthiophen-2-yl)sulfonyl)pyrrolidin-3-yl)oxy)phenyl)-5-(trifluoromethyl)-1,2,4-oxadiazole]",> 70
6,"O=C(c1ccccc1F)N1CC[C@H](Oc2ccc(-c3noc(C(F)(F)F)n3)cc2F)C1 [Compound 52, (S)-(3-(2-fluoro-4-(5-(trifluoromethyl)-1,2,4-oxadiazol-3-yl)phenoxy)pyrrolidin-1-yl)(2-fluorophenyl)methanone]",> 70
7,"O=S(=O)(c1ccccc1)N1CC[C@H](Oc2ccc(-c3noc(C(F)(F)F)n3)cn2)C1 [Compound 104, (S)-3-(6-((1-(phenylsulfonyl)pyrrolidin-3-yl)oxy)pyridin-3-yl)-5-(trifluoromethyl)-1,2,4-oxadiazole]",> 70
8,"O=S(=O)(c1ccc(Cl)cc1Cl)N1CC[C@H](Oc2ccc(-c3noc(C(F)(F)F)n3)cc2)C1 [Compound 120, (S)-3-(4-((1-((2,4-dichlorophenyl)sulfonyl)pyrrolidin-3-yl)oxy)phenyl)-5-(trifluoromethyl)-1,2,4-oxadiazole]",> 70
9,"O=C(c1ccccc1F)N1CC[C@@H](Oc2ccc(-c3noc(C(F)(F)F)n3)cn2)C1 [Compound 74, (R)-(2-fluorophenyl)(3-((5-(5-(trifluoromethyl)-1,2,4-oxadiazol-3-yl)pyridin-2-yl)oxy)pyrrolidin-1-yl)methanone]",> 70
10,"O=S(=O)(C1CC1)N1CC[C@H](Oc2ccc(-c3noc(C(F)(F)F)n3)cn2)C1 [Compound 106, (S)-3-(6-((1-(cyclopropylsulfonyl)pyrrolidin-3-yl)oxy)pyridin-3-yl)-5-(trifluoromethyl)-1,2,4-oxadiazole]",> 70
11,"O=C(c1ccc(F)cc1)N1CC[C@H](Oc2ccc(-c3noc(C(F)(F)F)n3)cc2)C1 [Compound 14, (S)-(4-fluorophenyl)(3-(4-(5-(trifluoromethyl)-1,2,4-oxadiazol-3-yl)phenoxy)pyrrolidin-1-yl)methanone]",> 70
12,"O=C(c1ccccc1F)N1CC[C@H](Oc2ccc(-c3noc(C(F)(F)F)n3)nc2)C1 [Compound 28, (S)-(2-fluorophenyl)(3-((6-(5-(trifluoromethyl)-1,2,4-oxadiazol-3-yl)pyridin-3-yl)oxy)pyrrolidin-1-yl)methanone]",> 70
13,"O=C(c1cccc(Br)c1)N1CC[C@H](Oc2ccc(-c3noc(C(F)(F)F)n3)cc2)C1 [Compound 3, (S)-(3-bromophenyl)(3-(4-(5-(trifluoromethyl)-1,2,4-oxadiazol-3-yl)phenoxy)pyrrolidin-1-yl)methanone]",> 70
14,"O=C(c1cccnc1)N1CC[C@H](Oc2ccc(-c3noc(C(F)(F)F)n3)c(F)c2)C1 [Compound 65, (S)-(3-(3-fluoro-4-(5-(trifluoromethyl)-1,2,4-oxadiazol-3-yl)phenoxy)pyrrolidin-1-yl)(pyridin-3-yl)methanone]",> 70
15,"O=C(c1ccc(C(F)(F)F)cc1)N1CCC(Oc2ccc(-c3noc(C(F)(F)F)n3)cc2)CC1 [Compound 102, (4-(4-(5-(trifluoromethyl)-1,2,4-oxadiazol-3-yl)phenoxy)piperidin-1-yl)(4-(trifluoromethyl)phenyl)methanone]",> 70
16,"COc1ccc(C(=O)N2CC[C@H](Oc3ccc(-c4noc(C(F)(F)F)n4)cn3)C2)cc1 [Compound 46, (S)-(4-methoxyphenyl)(3-((5-(5-(trifluoromethyl)-1,2,4-oxadiazol-3-yl)pyridin-2-yl)oxy)pyrrolidin-1-yl)methanone]",> 70
17,"O=C(Cc1ccc(Cl)cc1)N1CCC(Oc2ccc(-c3noc(C(F)(F)F)n3)cc2)CC1 [Compound 145, 2-(4-chlorophenyl)-1-(4-(4-(5-(trifluoromethyl)-1,2,4-oxadiazol-3-yl)phenoxy)piperidin-1-yl)ethan-1-one]",> 70
18,"Cc1ccc(S(=O)(=O)N2CC[C@H](Oc3ccc(-c4noc(C(F)(F)F)n4)cn3)C2)cc1 [Compound 107, (S)-3-(6-((1-tosylpyrrolidin-3-yl)oxy)pyridin-3-yl)-5-(trifluoromethyl)-1,2,4-oxadiazole]",> 70
19,"O=C(c1ccncc1)N1CC[C@H](Oc2ccc(-c3noc(C(F)(F)F)n3)nc2)C1 [Compound 32, (S)-pyridin-4-yl(3-((6-(5-(trifluoromethyl)-1,2,4-oxadiazol-3-yl)pyridin-3-yl)oxy)pyrrolidin-1-yl)methanone]",> 70
20,"O=S(=O)(Cc1ccccc1)N1CC(Oc2ccc(-c3noc(C(F)(F)F)n3)cc2)C1 [Compound 22, 3-(4-((1-(benzylsulfonyl)azetidin-3-yl)oxy)phenyl)-5-(trifluoromethyl)-1,2,4-oxadiazole]",> 70
21,"O=C(C1CC1)N1CC[C@H](Oc2ccc(-c3noc(C(F)(F)F)n3)cc2)C1 [Compound 43, (S)-cyclopropyl(3-(4-(5-(trifluoromethyl)-1,2,4-oxadiazol-3-yl)phenoxy)pyrrolidin-1-yl)methanone]",> 70

# Test system: Pyricularia oryzae
# Assay: microbe, parasite or virus in culture
# Assay type: cell-based
# Conditions: 168 h, read-out: control
row,SMILES,inhibition of growth at 300 ppm [%]
1,"O=C(c1ccncc1)N1CCC(Oc2ccc(-c3noc(C(F)(F)F)n3)cc2)CC1 [Compound 179, pyridin-4-yl(4-(4-(5-(trifluoromethyl)-1,2,4-oxadiazol-3-yl)phenoxy)piperidin-1-yl)methanone]",> 70
2,"CCS(=O)(=O)N1CC[C@H](Oc2ccc(-c3noc(C(F)(F)F)n3)cc2)C1 [Compound 40, (S)-3-(4-((1-(ethylsulfonyl)pyrrolidin-3-yl)oxy)phenyl)-5-(trifluoromethyl)-1,2,4-oxadiazole]",> 70
3,"O=C(c1ccccc1F)N1CCC(Oc2ccc(-c3noc(C(F)(F)F)n3)cc2)CC1 [Compound 92, (2-fluorophenyl)(4-(4-(5-(trifluoromethyl)-1,2,4-oxadiazol-3-yl)phenoxy)piperidin-1-yl)methanone]",> 70
